# Reference: ChEMBL document CHEMBL1149802, “Chemiluminescent high-throughput microassay applied to imidazo[2,1-b]thiazole derivatives as potential acetylcholinesterase and butyrylcholinesterase inhibitors” (Eur J Med Chem, 2008)
# Target: Acetylcholinesterase (Electrophorus electricus, UniProt O42275)
# Assay: Inhibition of electric eel acetylcholine esterase type V-S in presence of acetylcholine substrate by chemiluminescent assay
# Acetylcholinesterase, sequence (O42275 whole entry): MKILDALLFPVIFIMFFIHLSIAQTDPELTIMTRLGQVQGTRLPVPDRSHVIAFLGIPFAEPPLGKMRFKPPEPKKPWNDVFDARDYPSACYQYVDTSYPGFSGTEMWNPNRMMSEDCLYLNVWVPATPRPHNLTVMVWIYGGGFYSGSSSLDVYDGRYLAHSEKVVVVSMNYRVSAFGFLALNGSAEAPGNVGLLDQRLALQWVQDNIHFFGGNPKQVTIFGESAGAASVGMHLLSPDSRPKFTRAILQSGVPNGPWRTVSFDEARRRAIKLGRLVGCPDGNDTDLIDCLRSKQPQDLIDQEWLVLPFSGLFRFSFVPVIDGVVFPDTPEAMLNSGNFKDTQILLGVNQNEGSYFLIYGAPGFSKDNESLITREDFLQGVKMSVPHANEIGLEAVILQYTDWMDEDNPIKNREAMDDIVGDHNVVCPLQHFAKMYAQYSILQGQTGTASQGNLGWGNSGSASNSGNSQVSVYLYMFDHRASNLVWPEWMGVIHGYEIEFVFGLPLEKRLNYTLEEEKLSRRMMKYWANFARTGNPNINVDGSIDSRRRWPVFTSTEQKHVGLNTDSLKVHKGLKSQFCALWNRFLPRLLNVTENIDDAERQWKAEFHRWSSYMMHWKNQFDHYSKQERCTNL
row,Structure (SMILES),IC50 [µM]
1,CC(=O)N1CCN(/N=C/c2c(C)nc3sccn23)C1=O,35
2,O=C(c1ccccc1)N1CCN(/N=C/c2c(Cl)nc3sccn23)C1=O,4.2
3,CC(=O)N1CCN(/N=C/c2c(Cl)nc3sccn23)C1=O,60
